Measurements published in patent US20200129570A1, “Specific Bacterial Species and Metabolite That Improves Immune Checkpoint Inhibitor Therapy Efficacy” (BOARD OF REGENTS, THE UNIVERSITY OF TEXAS SYSTEM, priority 2017, published 2020).
Where “and” joins values, the source holds several entries; their conditions need not be identical. Identical values can stand only once. Entries after “also recorded” stand apart in the source; their conditions may differ.

Tested on: unresectable or metastatic melanoma
Assay: Single-site correlative study: RECIST v1.1 response to immune checkpoint inhibitor therapy (ICT) in metastatic melanoma patients
Type: in vivo, human
Conditions: for RECIST Category / Change in tumor size (%): individual metastatic melanoma patient, one line per patient; for Change in tumor size (%): RECIST v1.1; for number of patients who responded: monotherapy, metastatic melanoma
Method: Patients and Methods. The study design was a single-site, correlative study of the effects of gut microbiota and metabolites on ICT efficacy in 39 patients. The study was approved by the University of Texas Southwestern Medical Center Institutional Review Board (IRB # STU012016-056). The study was conducted in accordance with the Declaration of Helsinki. The inventors enrolled patients with a histologic diagnosis of unresectable or metastatic melanoma that were scheduled to begin ICT and able to collect stool specimens, store them in a freezer and deliver them to the University of Texas Southwestern Cancer Center facility. In addition, patients had to have measurable disease by Response Evaluation Criteria in Solid Tumors (RECIST) v1.1. Tumor sizes were evaluated within 4 weeks prior to beginning therapy by exams, CT scans, and/or MRIs. […] After informed consent, stool samples were collected and immediately frozen until transferred to the University of Texas Southwestern Medical Center at pretreatment and various times post-therapy. Repeat exams and scans were obtained every 2-3 months. Demographics, antibiotic use, and probiotic exposure were recorded for each patient. Patient response, stable disease and progression were evaluated by RECIST v1.1 criteria as reported.

nivolumab
RECIST Category: Response | Change in tumor size (%): −70% | number of patients who responded: One

ipilimumab
RECIST Category: Response | Change in tumor size (%): −100% | number of patients who responded: One

pembrolizumab
RECIST Category: Progression; also recorded: Response; also recorded: Stable | Change in tumor size (%): 53% and 81% and −36% and −68% and 100% (2×) and −27% and −14% and 0% and 125% and 46% and −48% and 131% | RECIST responders (patients/treated) (metastatic melanoma patients): 3/13
